Test [1] deals with T1, HoblOBP3 (Holotrichia oblita, UniProt G9BWQ7). Nature of the test: biochemical. The class given is binding. The procedure:
(§1) N-phenyl-1-naphthylamine (1-NPN) was selected as a probe to measure the affinity of the 1-NPN fluorescent ligand to proteins. A 1-cm light path quartz cuvette was used, and the fluorescence spectra were recorded on a Lengguang 970 CRT spectrofluorimeter (Shanghai Jingmi, China) at room temperature in a right angle configuration. The parameter selection was such that the slit widths for both excitation and emission were 10 nm. 1-NPN was excited at 337 nm and the emission spectra were recorded between 350 and 550 nm. Spectra were recorded using high-speed scanning.
(§2) The 2 µM protein solution was dissolved in 50 mM Tris-HCl buffer with pH 7.4, and the ligands were dissolved in chromatographically pure methanol as a 1 mM stock solution. 1-NPN was dissolved in chromatographically pure methanol as a 1 mM stock solution.
(§3) To determine the dissociation constants, the intensity values corresponding to the maximum fluorescence emission were plotted against free ligand concentrations. Assuming that the protein was 100% active and that the stoichiometric ratio between the protein and ligand was 1:1 at saturation, the bound ligand was determined from the fluorescence intensity values. The curves were then linearized using Scatchard plots. The K1-NPN values were estimated using GraphPad Prism 5 Software by nonlinear regression for a unique binding site. The dissociation constants of the competitors (Ki) were calculated from the corresponding IC50 values using the following equation: Ki = [IC50]/1+[1-NPN]/K1-NPN. […] [1-NPN] represented the free concentration of 1-NPN, and K1-NPN represented the dissociation constant of the complex protein/1-NPN [76].

The target in test [2] is T2, HoblOBP4 (Holotrichia oblita, UniProt G9BWQ8). Nature of the test: biochemical. In kind it is binding. The following applies: for Affinity (in words): HoblOBP4 alone. The procedure:
as §1, §2, §3

In test [3] the test system is HoblOBP1 and HoblOBP2 mixtures. Nature of the test: Competitive binding assay with binary protein mixture OBP1-OBP2. Also on record: species or system Holotrichia oblita. The following applies: HoblOBP1 and HoblOBP2 equimolar mixture and 1-NPN 2 µM, ligand 4–40 µM; compared to either protein alone. The procedure:
(§4) It is well known that the concentration of OBPs (also likely CSPs) in the sensillum lymph of the insect is extremely high (reportedly 10 mM). A hypothesis has been proposed that OBPs (or CSPs) homodimers or heterodimers might form. Thus, all binary potential intersections with four HoblOBPs and two HoblCSPs were tested in competitive binding assays to determine the existence of dimers. These experiments assumed that the protein was 100% active, a stoichiometric ratio between the protein and ligand was 1:1 at saturation and the two proteins were present in equimolar amounts. The binding curves and Scatchard plots of OBP3 and OBP4 mixture or CSP1 and CSP2 mixture were consistent with the functions of the individual proteins. However, the binding curve of the OBP2 and OBP4 mixture or OBP1 and OBP2 mixture presented a different tendency from those obtained with the individual proteins. […] Thus, we speculated that the decreased binding velocity was the main cause underlying this phenomenon. […] Such binding of the OBP2 and OBP4 mixture or OBP1 and OBP2 mixture in H. oblita was consistent with the OBP1 and OBP4 mixture in A. gambiae. In particular, some experiments also indicated interactions between OBP1 and OBP4 in A. gambiae. Thus, the hypothesis on a potential interaction between OBP2 and OBP4 (or OBP1 and OBP2) in H. oblita was proposed.
(§5) Figure 8 Competitive binding curves of representative ligands to binary protein mixtures OBP2-OBP4 and OBP1-OBP2 in H. oblita. The chemical structures of the ligands are shown on the right. A mixture of the proteins (equimolar amounts) and 1-NPN with both concentration of 2 µM in Tris-buffer was titrated with 1 mM solution of each competing ligand to final concentrations of 4–40 µM.
(§6) The 2 µM protein solution was dissolved in 50 mM Tris-HCl buffer with pH 7.4, and the ligands were dissolved in chromatographically pure methanol as a 1 mM stock solution. 1-NPN was dissolved in chromatographically pure methanol as a 1 mM stock solution. The protein solution was titrated to measure the protein’s affinity for the probe by adding aliquots of 1-NPN stock solution to final concentrations of 2 to 20µM.

The test system of test [4] is HoblOBP2. Also on record: method as in PMID 21852709. The note with it: HoblOBP2 alone; ref [13]; cited from earlier work.
In test [5] the test system is HoblOBP1. Also on record: method as in PMID 21852709. The following applies: HoblOBP1 alone; ref [13]; cited from earlier work.
For test [6], the system named is HoblOBP2 and HoblOBP4 mixtures. Nature of the test: Competitive binding assay with binary protein mixture OBP2-OBP4. Also on record: species or system Holotrichia oblita. The following applies: HoblOBP2 and HoblOBP4 equimolar mixture and 1-NPN 2 µM, ligand 4–40 µM. The protocol: as §4, §5, §6
For test [7], the target named is T1, HoblOBP3. Nature of the test: Binding curve of 1-NPN and Scatchard plot, HoblOBP3. The note with it: HoblOBP3 2 µM in Tris-buffer, 1-NPN 2–20 µM; read-out: Dissociation constant of 1-NPN. The protocol: as §1, with “scanning. Several types of compounds purchased from Sigma-Aldrich (Chemie Gmbh, Steinheim, Germany) were identified in the binding assays, and their purities were > 97% (Table 1). […]” for “scanning.”
(§7) To determine the dissociation constants, the intensity values corresponding to the maximum fluorescence emission were plotted against free ligand concentrations. Assuming that the protein was 100% active and that the stoichiometric ratio between the protein and ligand was 1:1 at saturation, the bound ligand was determined from the fluorescence intensity values. […] The dissociation constants of the competitors (Ki) were calculated from the corresponding IC50 values using the following equation: Ki = [IC50]/1+[1-NPN]/K1-NPN. […]

Test [8] deals with T2, HoblOBP4. Nature of the test: Binding curve of 1-NPN and Scatchard plot, HoblOBP4. The following applies: HoblOBP4 2 µM in Tris-buffer, 1-NPN 2–20 µM; read-out: Dissociation constant of 1-NPN. The procedure: as §1, with “scanning. Several types of compounds purchased from Sigma-Aldrich (Chemie Gmbh, Steinheim, Germany) were identified in the binding assays, and their purities were > 97% (Table 1). […]” for “scanning.”
as §7

Setting [9] is: pH 7.4, read-out: Int (fluorescence intensity as percent of the initial fluorescence).
Setting [10] is: HoblOBP3, dash = IC50 exceeded 50 µM, read-out: IC50 (dash).
[11] abbreviates: HoblOBP3, dash = ligand whose IC50 exceeded 50 µM, Ki not given, read-out: Ki (dash).
Setting [12] is: HoblOBP4, dash = IC50 exceeded 50 µM, read-out: IC50 (dash).
[13] abbreviates: HoblOBP4, dash = ligand whose IC50 exceeded 50 µM, Ki not given, read-out: Ki (dash).
Where [14] appears, read: pH 7.4, HoblOBP3, at the ligand concentration 24 µM, protein and 1-NPN both 2 µM, read-out: Int (fluorescence intensity as percent of the initial fluorescence).
The mark [15] stands for this setting: pH 7.4, HoblOBP4, at the ligand concentration 24 µM, protein and 1-NPN both 2 µM, read-out: Int (fluorescence intensity as percent of the initial fluorescence).
The mark [16] stands for this setting: HoblOBP4, protein and 1-NPN both 2 µM, ligand titrated 2–50 µM, read-out: IC50 (concentration of ligand halving the initial fluorescence intensity).
The mark [17] stands for this setting: HoblOBP4, calculated from IC50 and K1-NPN, read-out: Ki.

Like-named read-outs stand apart in the source and are kept apart here.

By Ki is commonly meant the dissociation constant of the complex between target and ligand, obtained from inhibition or displacement.

T1 sequence (G9BWQ7 entry or part of it): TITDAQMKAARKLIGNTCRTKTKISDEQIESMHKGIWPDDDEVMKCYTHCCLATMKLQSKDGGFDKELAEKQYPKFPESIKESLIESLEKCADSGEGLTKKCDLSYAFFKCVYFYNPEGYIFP
T2 sequence (G9BWQ8 entry or part of it): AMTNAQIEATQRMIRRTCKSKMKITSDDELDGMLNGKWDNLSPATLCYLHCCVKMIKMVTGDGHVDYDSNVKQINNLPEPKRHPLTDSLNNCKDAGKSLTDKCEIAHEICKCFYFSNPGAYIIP

`C=C[C@](C)(O)CCC=C(C)C` [R-(-)-Linalool]: the IC50 is greater than 50 µM in test [1] and 20 µM in test [2]. Besides, the Ki was greater than 50 µM in test [1] and 14.7 µM in test [2]. Further, the activity at 24 µM amounted to 73% in test [1] (setting [9]) and 46% in test [2] (setting [9]). The “Affinity (in words)” value is on record as “enhanced affinity” in test [3], “low-afﬁnity or non-afﬁnity” in test [4] and “low-afﬁnity or non-afﬁnity” in test [5].

Regarding `CC1=CC[C@@H](C(C)(C)O)CC1` [α-Terpineol], the IC50 in test [1] was greater than 50 µM; in test [2], 35.5 µM. Moreover, the Ki in test [1] is greater than 50 µM; in test [2], 26.1 µM. For the same compound, the activity at 24 µM in test [1] (setting [9]) worked out at 71%; in test [2] (setting [9]), 53%. In addition, the “Affinity (in words)” value in test [3] is “enhanced affinity”; in test [4], “low-afﬁnity or non-afﬁnity”; in test [5], “low-afﬁnity or non-afﬁnity”.

As for `O=C/C=C/c1ccccc1` [Cinnamaldehyde], the IC50 in test [1] was found to be 46 µM; in test [2], 9 µM. The values for the Ki in test [1] and in test [2] were 30 µM and 6.6 µM, respectively. Further, the results for the activity at 24 µM in test [1] (setting [9]) and in test [2] (setting [9]) were 64% and 36%, respectively. Also, the “Affinity (in words)” value in test [2] was “good afﬁnity”; in test [6], “good affinity”; in test [4] it was “low-afﬁnity or non-afﬁnity”.

On to `CC(=O)/C=C/C1=C(C)CCCC1(C)C` [β-Ionone], for which the IC50 in test [1] worked out at 8 µM; in test [2] it was 15 µM. In addition, the Ki is 5.2 µM in test [1] and 11 µM in test [2]. In addition, the activity at 24 µM in test [1] (setting [9]) was found to be 36%; in test [2] (setting [9]), 42%. Further, the results for the “Affinity (in words)” value in test [2], in test [6] and in test [4] were “good afﬁnity”, “enhanced affinity” and “good afﬁnity”, respectively.

Consider `CC1=C(/C=C/C(C)=C/C=C/C(C)=C/CO)C(C)(C)CCC1` [Retinol], for which the IC50 in test [1] (setting [10]) and in test [2] (setting [12]) was greater than 50 µM in each case. Moreover, the Ki in test [1] (setting [11]) and in test [2] (setting [13]) was greater than 50 µM in each case. In addition, the “Affinity (in words)” value in test [2] is recorded as “no afﬁnity”; in test [6], “good affinity”; in test [4], “low-afﬁnity or non-afﬁnity”.

Regarding `c1ccc(Nc2cccc3ccccc23)cc1` [1-NPN, N-phenyl-1-naphthylamine], the Kd in test [7] was found to be 1.88 µM; in test [8], 2.78 µM.

Regarding `CCCCCCC=O` [1-Heptanal], the IC50 in test [1] (setting [10]) and in test [2] (setting [12]) was greater than 50 µM each time. In addition, the inhibition constant (Ki) in test [1] (setting [11]) and in test [2] (setting [13]) was greater than 50 µM each time. Further, the activity at 24 µM turned out to be 65% in test [1] (setting [14]) and 64% in test [2] (setting [15]). Moreover, the “Affinity (in words)” value in test [3] is “enhanced affinity”; in test [4], “low-afﬁnity or non-afﬁnity”; in test [5], “low-afﬁnity or non-afﬁnity”.

On to `CCC/C=C/CO` [trans-2-Hexenol], for which the IC50 is greater than 50 µM in test [1] and 24 µM in test [2]. For the same compound, the Ki in test [1] is greater than 50 µM; in test [2], 17.7 µM. Further, the activity at 24 µM in test [1] (setting [14]) was determined as 82%; in test [2] (setting [15]), 51%. For the same compound, the “Affinity (in words)” value is listed as “enhanced affinity” in test [3], “low-afﬁnity or non-afﬁnity” in test [4] and “low-afﬁnity or non-afﬁnity” in test [5].

Turning to `C=CCc1ccc(O)c(OC)c1` [Eugenol], the IC50 in test [1] and in test [2] was greater than 50 µM in each case. Besides, the Ki in test [1] and in test [2] was greater than 50 µM each time. Besides, the activity at 24 µM was determined as 97% in test [1] (setting [9]) and 57% in test [2] (setting [9]). Moreover, the “Affinity (in words)” value in test [2] is on record as “no afﬁnity”; in test [6], “good affinity”; in test [4] it was “low-afﬁnity or non-afﬁnity”.

On to `CCOC(=O)CN` [Glycine ethyl ester], for which the IC50 in test [1] (setting [10]) is greater than 50 µM; in test [2] (setting [16]), 24 µM. Also, in test [1] (setting [11]), the Ki was greater than 50 µM. The activity at 24 µM in test [1] (setting [14]) turned out to be 76%; in test [2] (setting [15]) it was 50%.

With `C=CC(O)CCCCC` (centres unmarked) [1-Octen-3-ol], the IC50 is greater than 50 µM in test [1] (setting [10]) and 40 µM in test [2] (setting [16]). Moreover, the figures for the Ki in test [1] (setting [11]) and in test [2] (setting [17]) were greater than 50 µM and 29.4 µM, respectively. Besides, the activity at 24 µM in test [1] (setting [14]) was found to be 86%; in test [2] (setting [15]), 54%.

Regarding `OCCc1ccccc1` [Phenethyl alcohol], the results for the IC50 in test [1] (setting [10]) and in test [2] (setting [16]) were greater than 50 µM and 28 µM, respectively. Moreover, the Ki was greater than 50 µM in test [1] (setting [11]) and 20.6 µM in test [2] (setting [17]). The activity at 24 µM is 66% in test [1] (setting [14]) and 52% in test [2] (setting [15]).

Turning to `CC(=O)CCC=C(C)C` [6-Methyl-5-hepten-2-one], the results for the IC50 in test [1] and in test [2] were greater than 50 µM and 32 µM, respectively. Also, the results for the Ki in test [1] and in test [2] were greater than 50 µM and 23.5 µM, respectively. Also, the values for the activity at 24 µM in test [1] (setting [9]) and in test [2] (setting [9]) were 78% and 52%, respectively.

Values taken from publication PMC3871601, “Potential Cooperations between Odorant-Binding Proteins of the Scarab Beetle Holotrichia oblita Faldermann (Coleoptera: Scarabaeidae)” (PLoS ONE, 2013).
